Results published in PubChem BioAssay AID1996.
≈ marks a conversion by molar mass, not a printed value.

Conditions: buffer; pH 7.4; 200.0 µM

| Structure (SMILES) | solubility kinetic [µg/mL] |
| --- | --- |
| C=CCn1c(SCC(=O)NCC2CCCO2)nc2sc(CC)cc2c1=O (stereo not drawn) | > 59 |
| NC(=O)c1ccccc1N1CCCCC1 | > 30.6 |
| Cc1cccn2cc(-c3ccc4c(c3)NC(=O)CO4)nc12 | 7.9 (≈ 28.3 µM) |
| O=S(=O)(Nc1ccccc1N1CCOCC1)c1cccs1 | 4.2 (≈ 12.9 µM) |
| O=C(NC1CCN(Cc2ccc(Cl)cc2Cl)CC1)c1ccccc1 | 2.3 (≈ 6.33 µM) |
| COc1ccc(-c2nc(N)ncc2-c2ccc(OC)c(OC)c2)c(O)c1 | 1 (≈ 2.83 µM) |
| O=[N+]([O-])c1ccc(OCc2cnc(Cl)s2)c([N+](=O)[O-])c1 | 4.7 (≈ 14.9 µM) |
| Cc1ccc(C(=O)OCC(=O)NCc2ccc3c(c2)OCO3)cc1S(=O)(=O)N1CCOCC1 | 7.2 (≈ 15.1 µM) |
| C1=C(c2c[nH]c3ccccc23)CCN(Cc2ccccc2)C1 | 7.2 (≈ 25 µM) |
| O=C(NC1(C(F)(F)F)OCCO1)c1ccc(F)cc1 | 32.9 (≈ 118 µM) |
| Cc1ccc(N2C(=O)Nc3ccccc3S2(=O)=O)cc1Cl | 0.8 (≈ 2.48 µM) |
| Cc1cccc(C(=O)Nc2ccc3c(c2)ncn3C)c1 | > 39.8 |
| O=C(c1cccc(F)c1)N1CCCC(C(=O)N2CCCCC2)C1 (stereo not drawn) | > 47.8 |
| CCOc1ccc(OCCCC(=O)N(C)CC(=O)Nc2ccccc2Br)cc1 | 5.6 (≈ 12.5 µM) |
| CCCCc1c(C)nc2c(OC)cccc2c1SCC(=O)O | > 47.9 |
| CC(C)(C)N=C(NS(=O)(=O)c1cccs1)c1ccccc1 | > 48.4 |
| Cc1ccc(NC(=O)CN2C(=O)c3ccccc3S2(=O)=O)c(C)c1 | 2.7 (≈ 7.84 µM) |
| O=C(O)c1c(C(=O)O)c(-c2ccc(F)cc2)n2c1CCC2 | > 43.4 |
| CC(=O)c1ccc(S(=O)(=O)N2CCN(CCOc3ccccc3)CC2)cc1 | 53.6 (≈ 138 µM) |
| CC(=O)c1ccccc1NCC(=O)Nc1ccc(C)cc1 | 11.2 (≈ 39.7 µM) |
| Cc1ncc(CSc2ccc(Cl)cc2)c(CO)c1O | 14.1 (≈ 47.7 µM) |
| CC(C)(C)c1ccc(OCC(=O)NCCN2CCOCC2)cc1.Cl | 53 |
| NS(=O)(=O)c1ccc(CCNC(=O)c2ccc3nccnc3c2)cc1 | > 53.5 |
| COc1ccccc1N(CC(=O)N1CCCC1)S(=O)(=O)c1cc([N+](=O)[O-])ccc1Cl | 6.8 (≈ 15 µM) |

| Structure (SMILES) | solubility kinetic [µg/mL] |
| --- | --- |
| CC(C)(C)NC(=O)c1ccccc1-c1nc2ccccc2s1 | 35.6 (≈ 115 µM) |
| Cc1c(C)c(C)c(S(=O)(=O)NCCc2ccccn2)c(C)c1C | 40.3 (≈ 121 µM) |
| CCN(CC)C(=O)COc1c(-c2ccco2)oc2ccccc2c1=O | > 51.2 |
| CCCCOc1ccc(C(=O)NCCC(=O)NCCCC(=O)OCC)cc1 | > 56.8 |
| Cc1cc(C)cc(NS(=O)(=O)c2ccc(F)cc2)c1 | > 41.9 |
| CN1CCN(CC/C=C2/c3ccccc3Sc3ccc(S(=O)(=O)N(C)C)cc32)CC1 | > 66.5 |
| CC(Nc1c([N+](=O)[O-])c(=O)oc2ccccc12)c1ccccc1 (stereo not drawn) | 8.8 (≈ 28.4 µM) |
| C#Cc1ccc(C(=O)NCc2ccc(N3CCCC3=O)cc2)cc1 | 14.6 (≈ 45.9 µM) |
| Cc1cc(/C(N)=N/OC(=O)Nc2ccc(Cl)cc2)no1 | 15.9 (≈ 54 µM) |
| Cl.c1cnc(N2CCNCC2)nc1 | > 35.6 |
| OCCC1CN(Cc2ccon2)CCN1CCc1ccccc1 (stereo not drawn) | 42.3 (≈ 134 µM) |
| O=C(Nc1ccccc1)C1CCCN(C(=O)c2ccc(F)cc2)C1 (stereo not drawn) | > 49 |
| CC(C)N1CC(C(=O)Nc2cc(Cl)cc(Cl)c2)CC1=O (stereo not drawn) | > 47.3 |
| COc1ccsc1C(=O)NCCN1CCOCC1 | 39.7 (≈ 147 µM) |
| O=C(NC(=S)NC1CCC(O)CC1)c1ccco1 (stereo not drawn) | > 40.2 |
| Cc1cccc(NC(=O)c2cccc(C(=O)Nc3cccc(C)c3C)n2)c1C | 1.1 (≈ 2.95 µM) |
| COc1ccc(C(=O)NCCc2c[nH]c3ccccc23)cc1 | 42.6 (≈ 145 µM) |
| O=C1COc2ccccc2N1Cc1ccc(Cl)cc1 | 10.3 (≈ 37.6 µM) |
| Cn1nc(C(F)(F)F)c(-c2ccccc2)c1NC(=O)CSCC(=O)O | > 56 |
| O=C(NCC1COc2ccccc2O1)C1(c2ccccc2)CCCC1 (stereo not drawn) | 17.8 (≈ 52.8 µM) |
| Cn1c2ccccc2c2cc([N+](=O)[O-])ccc21 | < 0.2 |
| COC(=O)c1ccc(CNC(=O)c2ccc3c(c2)OCCO3)cc1 | 45.5 (≈ 139 µM) |
| O=C(C1Cc2ccccc2CN1S(=O)(=O)c1ccccc1[N+](=O)[O-])N1CCOCC1 (stereo not drawn) | 63.7 (≈ 148 µM) |
| COCCCNC(=S)N/N=C/c1ccc(O)cc1 | > 40.1 |

| Structure (SMILES) | solubility kinetic [µg/mL] |
| --- | --- |
| Cc1ccc(OCC(=O)N2CCCCCCC2)cc1C | 22.6 (≈ 82.1 µM) |
| O=S(=O)(c1c(Cl)sc(Cl)c1Br)N1CCCC1 | 4.4 (≈ 12.1 µM) |
| Cc1nc2ccc(C(=O)O)cc2c2c1CC(CN)O2 (stereo not drawn) | 19.7 (≈ 76.3 µM) |
| CCCCN(C(=O)c1c(C)noc1C)c1c(N)n(CCC)c(=O)[nH]c1=O | 18.6 (≈ 51.2 µM) |
| CCOC(=O)c1c(-c2cccs2)csc1N | 26.8 (≈ 106 µM) |
| Cc1cc(O)c(N=Cc2cc3c(cc2[N+](=O)[O-])OCO3)cc1C | 7 (≈ 22.3 µM) |
| O=C(Nc1ccccc1C(F)(F)F)c1ccc2nccnc2c1 | > 47.6 |
| COc1cccc(CNC(=S)Nc2ccc(Cl)cc2C)c1 | 5.5 (≈ 17.1 µM) |
| O=C(O)c1cccc(N=C2NC(=O)C(CO)(CO)S2)c1 | > 44.4 |
| O=C(Nc1ccccc1)c1ccc(OC(=O)c2ccccc2)cc1 | < 0.7 |
| O=C(OCC(=O)N1CCc2ccccc2C1)c1ccc(F)cc1Cl | 37.2 (≈ 107 µM) |
| Cc1cccnc1NC(=O)c1sc2ccccc2c1Cl | 3 (≈ 9.91 µM) |
| CCCCN(CC)CCNC(=O)c1cc2c(=O)[nH]c3ccccc3c2n1C | 43.9 (≈ 119 µM) |
| COc1ccc(NC(=O)NC2CCCc3ccccc32)c(OC)c1 (stereo not drawn) | 1 (≈ 3.06 µM) |
| O=C(COC(=O)c1ccc[nH]c1=O)NCCc1ccc(F)cc1 | 44.6 (≈ 140 µM) |
| CC1(C)OC(=O)N(CCC(=O)Nc2cccc(F)c2)C1(C)O (stereo not drawn) | > 46.5 |
| CCc1cccc(NC(=S)N2CCC(c3ccccc3)C2)c1 (stereo not drawn) | 4.6 (≈ 14.8 µM) |
| CC(=O)c1ccc(N2CCN(C(=O)c3ccc4[nH]c(C)c(C)c4c3)CC2)cc1 | 1.6 (≈ 4.26 µM) |
| CN(C1CCS(=O)(=O)C1)S(=O)(=O)c1ccccc1 (stereo not drawn) | > 43.4 |
| FC(F)(F)c1ccccc1CN1CCC(Cc2ccccc2)CC1 | < 0.7 |
| CC1CN(C)C(C)CC1OC(=O)C(c1ccccc1)c1ccccc1 (stereo not drawn) | 42.1 (≈ 125 µM) |
| COc1c(C)cc(S(=O)(=O)NCCN2CCOCC2)c(C)c1C | 46.4 (≈ 135 µM) |
| Cc1ccc(S(=O)(=O)N2CCN(CCc3ccncc3)CC2)cc1 | > 51.8 |
| O=C(COc1ccccc1)Nc1c(Cl)ccc2nsnc12 | 4.7 (≈ 14.7 µM) |

| Structure (SMILES) | solubility kinetic [µg/mL] |
| --- | --- |
| COCCCN(CC(=O)Nc1ccc(F)cc1)S(=O)(=O)c1cccs1 | > 58 |
| O=C1ON=C(c2ccccc2)/C1=C/c1ccc(O)cc1 | > 39.8 |
| COCc1[nH]c(=S)c(C#N)cc1C(=O)OC | 27.9 (≈ 117 µM) |
| COc1ccc(NC(=O)CNC(=O)c2ccco2)cc1S(=O)(=O)Nc1cc(C)ccc1Br | 17.1 (≈ 32.7 µM) |
| CC(C)CC(=O)N1CCN(Cc2ccc(C(F)(F)F)cc2)CC1 | 47.2 (≈ 144 µM) |
| CC(C)(C)S(=O)(=O)c1ccccc1-c1noc(-c2ccccc2)c1C(N)=O | > 57.7 |
| CNc1snc(C)c1C(=O)OCC(=O)NCc1ccccc1OC | 3.8 (≈ 10.9 µM) |
| CCCCNc1ccc(C(=O)OCCN(C)C)cc1.Cl | > 45.1 |
| O=C(CSc1ccccc1)Nc1ccc(N2CCOCC2)c(F)c1 | 2.7 (≈ 7.79 µM) |
| CCC(C)c1ccccc1OCCCN(C)Cc1ccccc1 (stereo not drawn) | 4.1 (≈ 13.2 µM) |
| Nc1nc(Cl)c(C=O)c(N2CCCCC2)n1 | 34.6 (≈ 144 µM) |
| CC(C)CCOc1ccc(C2(C)NC(=O)NC2=O)cc1 (stereo not drawn) | 38.5 (≈ 139 µM) |
| CC1=Nc2cccc([N+](=O)[O-])c2NC(=O)C1 | > 32.9 |
| CCc1cc(C(=O)N2CCCc3ccccc32)sc1C | 9.7 (≈ 34 µM) |
| COc1ccc(NC(=O)CSc2ncnc3sc(C)cc23)cc1 | 1.2 (≈ 3.47 µM) |
| Cc1ccc(C(=O)OC(C)C(=O)Nc2ccc3c(c2)OCO3)c(O)c1 (stereo not drawn) | 9.5 (≈ 27.7 µM) |
| COc1cccc(NC(=O)C(C)SCc2ccccc2)c1 (stereo not drawn) | > 45.2 |
| Cc1ccc(N2CC(C(=O)N3CCCCC3)CC2=O)cc1C (stereo not drawn) | > 45.1 |
| COCC(C)N=C1SCCN1Cc1ccccc1 (stereo not drawn) | 35.3 (≈ 134 µM) |
| CCOCCCNC(=O)c1cc2c(=O)[nH]c3ccccc3c2s1 | 1.7 (≈ 5.15 µM) |
| O=C(c1cc(-c2ccccc2O)on1)N1CCCCCC1 | 2.6 (≈ 9.08 µM) |
| Cc1ccc(S(=O)(=O)N2CCCC(C)C2)cc1 (stereo not drawn) | 21.3 (≈ 84.1 µM) |
| O=C(CN1CCN(Cc2ccccc2Cl)C1=O)NCc1ccccn1 | > 53.8 |
| COC(=O)C1=C(N)Oc2cc(C)[nH]c(=O)c2C1c1ccccc1OC (stereo not drawn) | 46.5 (≈ 136 µM) |

| Structure (SMILES) | solubility kinetic [µg/mL] |
| --- | --- |
| COc1ccc(NC(=O)C2COc3ccccc3O2)cc1 (stereo not drawn) | > 42.8 |
| CN1CC(C(=O)O)Cc2c1ccc1ccccc21 (stereo not drawn) | 31.7 (≈ 131 µM) |
| O=C(CCc1c[nH]c2ccccc12)NCCOc1ccccc1 | 43.7 (≈ 142 µM) |
| COc1ccc(OC)c(N/C(=N/c2nc(C)cc(C)n2)NC(C)=O)c1 | 0.6 (≈ 1.75 µM) |
| O=[N+]([O-])c1ccccc1S(=O)(=O)N1CCN(Cc2ccccc2)CC1 | 24.4 (≈ 67.5 µM) |
| CC(CCn1cccn1)NC(=O)CCc1nnc(C2CCCCC2)o1 (stereo not drawn) | > 51.8 |
| O=C(CCNc1cccc(F)c1)c1cc2ccccc2o1 | < 0.6 |
| NS(=O)(=O)c1ccc(NC(=O)C2C3C=CC(C3)C2C(=O)O)cc1 (stereo not drawn) | > 50.5 |
| N#C/C(=C\c1c[nH]c2ccc(Br)cc12)c1ccccn1 | 0.8 (≈ 2.47 µM) |
| CC1(C)CC(NC(=O)C2CCCCC2)CC(C)(C)N1 | 35.2 (≈ 132 µM) |
| CC(C)(ONC(=O)Nc1ccccc1Cl)C(=O)O | > 40.9 |
| CC(C)(C)C(=O)N1CCN(C(c2ccccc2)c2ccccc2)CC1 | 28.3 (≈ 84.1 µM) |
| CC(=O)N(CN1C(=O)CCC1=O)c1ccc(Cl)c(Cl)c1 | > 47.3 |
| Cc1ccc(CNC(=S)NCc2ccncc2)cc1 | 39.7 (≈ 146 µM) |
| CC(C)(/C=N/O)/[N+]([O-])=C/c1ccccc1 | > 30.9 |
| COc1ccc(-c2nc3ccccc3c(=O)n2CC(C)C)cc1 | 38.3 (≈ 124 µM) |
| O=C1CN(C(=O)COC(=O)/C=C/c2ccc(F)cc2)c2ccccc2N1 | 4.6 (≈ 13 µM) |
| O=C(C1CCCN(Cc2ccccc2F)C1)N1CCCC1.O=C(O)C(=O)O (stereo not drawn) | 43.2 |
| NC(=O)c1ccccc1OC1CCC1 | > 28.7 |
| O=C(CSc1nccc(=O)[nH]1)NCc1ccc2c(c1)OCO2 | > 47.9 |
| CC(C)OP(=O)(OC(C)C)C(Nc1ccc(C(=O)O)cc1)c1ccccc1 (stereo not drawn) | > 58.7 |
| CCOc1ccccc1NC(=O)Nc1ccc2c(c1)OCO2 | 2.8 (≈ 9.32 µM) |
